Laboratory results reported in ChEMBL document CHEMBL4308841, “Synthesis, in vitro antiproliferative activity, and kinase inhibitory effects of pyrazole-containing diarylureas and diarylamides” (Eur J Med Chem, 2018).

Legend:
SK-MEL-2 [1] = assay: Growth inhibition of human SK-MEL-2 cells incubated for 48 hrs by sulforhodamine B assay; format: functional, cell-based; details: SK-MEL-2, 48 h
OVCAR-8 = assay: Growth inhibition of human OVCAR8 cells assessed as cell growth at 1 uM incubated for 48 hrs by sulforhodamine B assay relative to control; format: functional; details: OVCAR-8, 48 h, read-out: Activity
RXF 393 = assay: Growth inhibition of human RXF393 cells assessed as cell growth at 1 uM incubated for 48 hrs by sulforhodamine B assay relative to control; format: functional; details: RXF 393, 48 h, read-out: Activity
A498 = assay: Growth inhibition of human A498 cells assessed as cell growth at 1 uM incubated for 48 hrs by sulforhodamine B assay relative to control; format: functional; details: A498, 48 h, read-out: Activity
SF-268 [2] = assay: Growth inhibition of human SF268 cells incubated for 48 hrs by sulforhodamine B assay; format: functional, cell-based; details: SF-268, 48 h
SF-268 [3] = assay: Growth inhibition of human SF268 cells assessed as cell growth at 1 uM incubated for 48 hrs by sulforhodamine B assay relative to control; format: functional; details: SF-268, 48 h, read-out: Activity
COLO 205 = assay: Growth inhibition of human COLO205 cells assessed as cell growth at 0.01 uM incubated for 48 hrs by sulforhodamine B assay relative to control; format: functional; details: COLO 205, 48 h, read-out: Activity
SNB-19 = assay: Growth inhibition of human SNB19 cells assessed as cell growth at 100 uM incubated for 48 hrs by sulforhodamine B assay relative to control; format: functional; details: SNB-19, 48 h, read-out: Activity
NCI-H226 = assay: Growth inhibition of human NCI-H226 cells incubated for 48 hrs by sulforhodamine B assay; format: functional, cell-based; details: NCI-H226, 48 h
NCI-H23 = assay: Growth inhibition of human NCI-H23 cells assessed as cell growth at 0.1 uM incubated for 48 hrs by sulforhodamine B assay relative to control; format: functional; details: NCI-H23, 48 h, read-out: Activity
MOLT-4 = assay: Growth inhibition of human MOLT4 cells incubated for 48 hrs by sulforhodamine B assay; format: functional, cell-based; details: MOLT-4, 48 h
MDA-MB-435 = assay: Growth inhibition of human MDA-MB-435 cells incubated for 48 hrs by sulforhodamine B assay; format: functional, cell-based; details: MDA-MB-435, 48 h
RPMI-8226 = assay: Growth inhibition of human RPMI8226 cells assessed as cell growth at 1 uM incubated for 48 hrs by sulforhodamine B assay relative to control; format: functional; details: RPMI-8226, 48 h, read-out: Activity
SK-MEL-2 [4] = assay: Growth inhibition of human SK-MEL-2 cells assessed as cell growth at 10 uM incubated for 48 hrs by sulforhodamine B assay relative to control; format: functional; details: SK-MEL-2, 48 h, read-out: Activity
HT-29 = assay: Growth inhibition of human HT-29 cells incubated for 48 hrs by sulforhodamine B assay; format: functional, cell-based; details: HT-29, 48 h
A549 [5] = assay: Growth inhibition of human A549/ATCC cells assessed as cell growth at 100 uM incubated for 48 hrs by sulforhodamine B assay relative to control; format: functional; details: A549, 48 h, read-out: Activity
UACC-257 = assay: Growth inhibition of human UACC257 cells assessed as cell growth at 1 uM incubated for 48 hrs by sulforhodamine B assay relative to control; format: functional; details: UACC-257, 48 h, read-out: Activity
Hs-578T [6] = assay: Growth inhibition of human Hs578T cells assessed as cell growth at 100 uM incubated for 48 hrs by sulforhodamine B assay relative to control; format: functional; details: read-out: Activity
HL-60(TB) = assay: Growth inhibition of human HL-60(TB) cells incubated for 48 hrs by sulforhodamine B assay; format: functional, cell-based; details: HL-60, 48 h
Hs-578T [7] = assay: Growth inhibition of human Hs578T cells incubated for 48 hrs by sulforhodamine B assay; format: functional, cell-based
Hs-578T [8] = assay: Growth inhibition of human Hs578T cells assessed as cell growth at 0.01 uM incubated for 48 hrs by sulforhodamine B assay relative to control; format: functional; details: read-out: Activity
SNB-75 = assay: Growth inhibition of human SNB75 cells assessed as cell growth at 0.01 uM incubated for 48 hrs by sulforhodamine B assay relative to control; format: functional; details: SNB-75, 48 h, read-out: Activity
K562 = assay: Growth inhibition of human K562 cells assessed as cell growth at 0.1 uM incubated for 48 hrs by sulforhodamine B assay relative to control; format: functional; details: K562, 48 h, read-out: Activity
SK-OV-3 = assay: Growth inhibition of human SKOV3 cells assessed as cell growth at 1 uM incubated for 48 hrs by sulforhodamine B assay relative to control; format: functional; details: SK-OV-3, 48 h, read-out: Activity
HOP-62 = assay: Growth inhibition of human HOP62 cells assessed as cell growth at 1 uM incubated for 48 hrs by sulforhodamine B assay relative to control; format: functional; details: HOP-62, 48 h, read-out: Activity
U-251 = assay: Growth inhibition of human U251 cells assessed as cell growth at 0.01 uM incubated for 48 hrs by sulforhodamine B assay relative to control; format: functional; details: U-251, 48 h, read-out: Activity
CCRF-CEM = assay: Growth inhibition of human CCRF-CEM cells assessed as cell growth at 1 uM incubated for 48 hrs by sulforhodamine B assay relative to control; format: functional; details: read-out: Activity
A549 [9] = assay: Growth inhibition of human A549/ATCC cells assessed as cell growth at 0.1 uM incubated for 48 hrs by sulforhodamine B assay relative to control; format: functional; details: A549, 48 h, read-out: Activity
[10] = read-out: pLC50 (the source's name) (converted)
[11] = read-out: LC50 (the source's name)

Work on `COc1cc(Cl)cc(-c2nn(-c3cccc(NC(=O)Nc4cc(C(F)(F)F)cc(C(F)(F)F)c4)c3)cc2-c2ccncc2)c1` yielded an IC50 (SK-MEL-2 [1]) of 0.66 µM, a GI50 (SK-MEL-2 [1]; read-out: GI50) of 0.658 µM and a TGI (SK-MEL-2 [1]; read-out: TGI) of 2.7 µM. The GI50 (SK-MEL-2 [1]; read-out: pGI50 (converted)) was 0.661 µM, the CC50 (SK-MEL-2 [1]; [10]) was 9.33 µM and the TGI (SK-MEL-2 [1]; read-out: pTGI (converted)) was 2.69 µM. The growth at 1 µM (OVCAR-8) was 12%, the growth at 1 µM (RXF 393) was 50% and the growth at 1 µM (A498) was 37%. For the same compound, the IC50 (SF-268 [2]) was 0.62 µM, the GI50 (SF-268 [2]; read-out: GI50) was 0.618 µM and the CC50 (SF-268 [2]; [11]) was 0.0307 µM. For the same compound, the TGI (SF-268 [2]; read-out: TGI) was 3.25 µM, the GI50 (SF-268 [2]; read-out: pGI50 (converted)) was 0.617 µM and the CC50 (SF-268 [2]; [10]) was 30.9 µM. For the same compound, the TGI (SF-268 [2]; read-out: pTGI (converted)) was 3.24 µM, the growth at 1 µM (SF-268 [3]) was 37% and the growth at 0.01 µM (COLO 205) was 98%. For the same compound, the growth at 100 µM (SNB-19) was -42%, the IC50 (NCI-H226) was 0.7 µM and the GI50 (NCI-H226; read-out: GI50) was 0.704 µM. It also gave an LC50 (NCI-H226; read-out: LC50) of over 100 µM, a TGI (NCI-H226; read-out: TGI) of 5.17 µM and a GI50 (NCI-H226; read-out: pGI50 (converted)) of 0.708 µM. For the same compound, the LC50 (NCI-H226; read-out: pLC50 (converted)) was over 100 µM, the TGI (NCI-H226; read-out: pTGI (converted)) was 5.13 µM and the growth at 0.1 µM (NCI-H23) was 95%. For the same compound, the IC50 (MOLT-4) was 0.31 µM, the GI50 (MOLT-4; read-out: GI50) was 0.306 µM and the CC50 (MOLT-4; [11]) was over 100 µM. For the same compound, the TGI (MOLT-4; read-out: TGI) was 1.64 µM, the GI50 (MOLT-4; read-out: pGI50 (converted)) was 0.302 µM and the CC50 (MOLT-4; [10]) was over 100 µM. It also gave a TGI (MOLT-4; read-out: pTGI (converted)) of 1.62 µM, an IC50 (MDA-MB-435) of 0.43 µM and a GI50 (MDA-MB-435; read-out: GI50) of 0.425 µM. For the same compound, the LC50 (MDA-MB-435; read-out: LC50) was 0.0115 µM, the TGI (MDA-MB-435; read-out: TGI) was 2.03 µM and the GI50 (MDA-MB-435; read-out: pGI50 (converted)) was 0.427 µM. The LC50 (MDA-MB-435; read-out: pLC50 (converted)) was 11.7 µM, the TGI (MDA-MB-435; read-out: pTGI (converted)) was 2.04 µM and the growth at 1 µM (RPMI-8226) was -12%. For the same compound, the growth at 10 µM (SK-MEL-2 [4]) was -38.1%, the IC50 (HT-29) was 0.45 µM and the GI50 (HT-29; read-out: GI50) was 0.453 µM. For the same compound, the CC50 (HT-29; [11]) was 0.0126 µM, the TGI (HT-29; read-out: TGI) was 2.21 µM and the GI50 (HT-29; read-out: pGI50 (converted)) was 0.457 µM. It also gave a CC50 (HT-29; [10]) of 12.9 µM, a TGI (HT-29; read-out: pTGI (converted)) of 2.82 µM and a growth at 100 µM (A549 [5]) of -68%. For the same compound, the growth at 1 µM (UACC-257) was 23%, the growth at 100 µM (Hs-578T [6]) was -25% and the IC50 (HL-60(TB)) was 0.33 µM. The GI50 (HL-60(TB); read-out: GI50) was 0.37 µM, the LC50 (HL-60(TB); read-out: LC50) was over 100 µM and the TGI (HL-60(TB); read-out: TGI) was 3.24 µM. For the same compound, the GI50 (HL-60(TB); read-out: pGI50 (converted)) was 0.324 µM, the LC50 (HL-60(TB); read-out: pLC50 (converted)) was over 100 µM and the TGI (HL-60(TB); read-out: pTGI (converted)) was 3.24 µM. For the same compound, the IC50 (Hs-578T [7]) was 1.4 µM, the GI50 (Hs-578T [7]; read-out: GI50) was 1.4 µM and the TGI (Hs-578T [7]; read-out: TGI) was 7.26 µM. It also gave a GI50 (Hs-578T [7]; read-out: pGI50 (converted)) of 1.45 µM, a CC50 (Hs-578T [7]; [10]) of over 100 µM and a TGI (Hs-578T [7]; read-out: pTGI (converted)) of 7.24 µM. The growth at 0.01 µM (Hs-578T [8]) was 97%, the growth at 0.01 µM (SNB-75) was 71% and the growth at 0.1 µM (K562) was 91%. For the same compound, the growth at 1 µM (SK-OV-3) was 43%, the growth at 1 µM (HOP-62) was 40% and the growth at 0.01 µM (U-251) was 96%. It also gave a growth at 1 µM (CCRF-CEM) of 5% and a growth at 0.1 µM (A549 [9]) of 95%.
